Results taken from patent publication US20090162848A1, “Noxin, a novel stress-induced gene involved in cell cycle and apoptosis” (COLD SPRING HARBOR LABORATORY, priority 2007, published 2009).

How the values were obtained:
Type in all cases: cell-based, mouse
[1] = tested on: noxin mRNA in NIH3T3 cells; experiment: Q-PCR of noxin mRNA in NIH3T3 cells exposed to stress stimuli; details: for induction of noxin mRNA: NIH3T3 cells exposed for 16 hours, Q-PCR
Protocol: The cDNA was diluted, mixed with 2×SYBR Green PCR Master Mix (Applied Biosystems) and 0.3 μM forward and reverse primers, and amplified using the ABI PRISM 7700 Sequence Detection System (Applied Biosystems). Primers (Sigma Genosys) for noxin and β-actin were designed using Primer Express software (Applied Biosystems) assuming the Tm value of 58-60° C. and the amplicon size of 70-150 bp:
The PCR conditions for the thermal cycler were as follows: denaturation (1 cycle at 95° C. for 10 min), amplification (40 cycles at 95° C. for 15 sec and 60° C. for 1 min). During the amplification, the fluorescence of each sample in the plate was detected in real time and an amplification curve was drawn by Sequence Detection System Software (Applied Biosystems) to get the threshold cycle Cτ, the cycle number at which the curve starts to rise over the background noise. The data from noxin amplifications were normalized using the Cτ value from the β-actin set for each sample and the relative difference in the amount of noxin RNA in untreated and in stress-exposed cells was calculated.
Noxin is induced not only by NO but also by other known stress stimuli. NIH3T3 cells were exposed for 16 hours to γ-irradiation (γ-IR), UV-irradiation (UV-IR), the chemotherapeutic agent adriamycin (ADR), hydrogen peroxide (H2O2), and a mixture of cytokines (TNF-α, IFN-γ, and IL-1β) which is known to be a potent inducer of reactive oxygen and nitrogen species.

[2] = tested on: noxin protein in NIH3T3 cells; experiment: Western blot of endogenous noxin protein after stress stimuli; details: anti-noxin Western blot
Protocol: (§1) Western blot analysis. Cells or tissues were homogenized in the lysis buffer (10 mM Tris-HCl pH 7.5, 1 mM EDTA, 400 mM NaCl, 0.5% NP40, 5 mM NaF, 0.5 mM sodium orthovanadate, 10% glycerol, 1 mM dithiothreitol, 1 mM PMSF, 1 μg/ml aprotinin, 1 μg/ml leupeptin and 1 μg/ml pepstatin) for 20 min on ice. Following centrifugation, the soluble fraction was collected and protein concentration was determined using the BCA assay kit (Pierce). 50 μg of total protein was separated on an 8% SDS-PAGE gel and transferred to Immobilon-P membrane (Millipore Corporation) by semi-dry blotting. The membranes were incubated with anti-noxin antibody (see above) (1:1,000) followed by anti-mouse IgG or anti-rabbit IgG antibody conjugated to horseradish peroxidase (HRP) (1:10,000, Amersham). The HRP signal was detected using a chemi-luminescence detection kit (SuperSignal Femto Dura Extended Duration Substrate, Pierce) and Hyperfilm X-ray film (Amersham Biosciences).
Furthermore, in the SNAP-, cytokines-, γ-irradiation, and adriamycin-treated cells an additional band of 129 kD was evident.

[3] = tested on: noxin protein in NIH3T3 cells; experiment: Western blot of noxin protein by cell cycle phase and cell cycle inhibitors
Protocol: as §1, with “The membranes were incubated with anti-noxin antibody (see above) (1:1,000) followed by anti-mouse IgG or anti-rabbit IgG antibody conjugated to horseradish peroxidase (HRP) (1:10,000, Amersham).” left out
The relationship between cell cycle and noxin expression was examined by determining the noxin mRNA levels in cells in various phases of the cell cycle using the methodology as follows: NIH3T3 cells, synchronized by serum starvation (DMEM with 0.5% serum for 24 h) were released from arrest by the addition of 10% serum (corresponds to the 0 h time point). […] Noxin mRNA expression was analyzed using Q-PCR 0, 4, 14, or 20 h after the addition of serum. The cell cycle phase of the cells was determined by flow cytometry in the following manner: […]

NIH3T3 cells [4] = experiment: DNA content (PI flow cytometry) of shRNA-transfected, nocodazole-treated NIH3T3 cells; details: for fraction of cells in the sub-G1 population: nocodazole for 20 h
Protocol: For this experiment, NIH3T3 cells were transfected with 1 μg (HPC) or 2 μg (2×HPC) of the HPC shRNA construct, treated with nocodazole for 20 h, collected, stained with PI, and analyzed for DNA content using flow cytometry. The downregulation of noxin using this shRNA construct decreased the fraction of cells in G2/M and increased the fraction of cells in the sub-G1 population: 5.7±0.4% in control cells vs. 7.8±1.3% in cells transfected with 1 μg of HPC, and 8.0±1.7% in cells transfected with 2 μg of HPC (FIG. 20B).

noxin = experiment: Suppression of FLAG-noxin protein by shRNA constructs (co-transfection, Western blot); details: NIH3T3 cells co-transfected with shRNA, FLAG-noxin and luciferase
Text: The role of noxin in normal cells was probed by down regulating its expression using the RNAi approach. Plasmids expressing six different noxin shRNA (FIG. 22, depicted as HPA-HPF) under control of the human U6 promoter were generated as described (Paddison et al., Proc Natl Acad Sci U.S.A. 99:1443-8 (2002)). The 6 hairpin structures correspond to the following noxin nucleotide positions: The target U6 promoter cassette DNA was amplified using a 5′-primer corresponding to the SP6 site at the 5′-end of the U6 promoter cassette and a long 3′ primer complementary to the 3′-end of the promoter and containing sequences for the noxin shRNA and a pol III termination site. The PCR fragments were subcloned into pENTR-TOPO-D vector (Invitrogen) and then transferred into pMSCV-puro vector by a clonase (Invitrogen) reaction. These six, short hairpin RNA (shRNA) constructs were generated and corresponded to different regions of noxin mRNA and their binding efficiency was compared by co-expressing them with recombinant noxin cDNA (FIG. 20A). To select shRNA constructs, six different shRNA constructs (HPA to HPF) were produced and examined for their ability to suppress the expression of noxin protein. […] After normalization, protein samples were analyzed for the expression of FLAG-noxin protein by Western blot.

NIH3T3 cells [5] = experiment: Nuclear morphology (Hoechst) of shRNA/YFP-actin co-transfected cells; details: co-transfected with YFP-actin, Hoechst stain
Text: Panels 21A-D are images of cells that were co-transfected with the HPC or HPF shRNA constructs together with YFP-actin construct and stained with Hoechst. shRNA-transfected cells were identified by the YFP expression. […] The nuclei of cells transfected with HPF and YFP-actin or with YFP-actin alone and the nuclei of non-transfected cells had normal shape (light blue arrowheads). Scale bar: 10 μm.

NIH3T3 cells [6] = experiment: BrdU incorporation (DNA synthesis) in transfected versus untransfected NIH3T3 cells; details: BrdU labeling for 24 h
Protocol: In addition, constructs coding for cyan fluorescent protein with a nuclear localization signal (CFP-nuc), yellow fluorescent protein fused to actin (YFP-actin), or vector construct alone were used as controls. Cells were then labeled with BrdU for 24 h and analyzed cells in situ by immunocytochemistry for BrdU and noxin (or other listed proteins) (FIG. 11A-C). In the figures, signals from anti-FLAG antibodies are seen in red; anti-BrdU antibodies are green; Hoechst 33342 (blue) was used for nuclear counter-staining. […] Recombinant protein was detected on a Western blot using the anti-FLAG antibody.

Compound: OO [H2O2, hydrogen peroxide]
- induction of noxin mRNA [1]: strong induction
- noxin mRNA level versus unstimulated cells ([1]; NIH3T3 cells, stress exposure): 13 fold
- levels of the 125 kD noxin polypeptide [2]: specifically increased

Compound: COc1cccc2c1C(=O)c1c(O)c3c(c(O)c1C2=O)C[C@@](O)(C(=O)CO)C[C@@H]3O[C@H]1C[C@H](N)[C@H](O)[C@H](C)O1 [adriamycin]
- induction of noxin mRNA [1]: strong induction
- additional noxin band of 129 kD [2]: evident
- levels of the 125 kD noxin polypeptide [2]: specifically increased

Compound: C[C@@]1(CO)[C@H](O)CC[C@@]2(C)[C@H]1CC[C@H]1C[C@@H]3C[C@@]12CC[C@]3(O)CO [aphidicolin]
- Noxin levels in response to cell cycle inhibitors [3]: induced

Compound: COC(=O)Nc1nc2ccc(C(=O)c3cccs3)cc2[nH]1 [nocodazole]
- Noxin levels in response to cell cycle inhibitors [3]: induced
- cell cycle effect of nocodazole treatment (NIH3T3 cells [4]; NIH3T3 cells, 20 h): accumulation of cells in the G2/M phase

Compound: HPC: noxin shRNA construct, nt 1163-1191 (SEQ ID NO: 16) (DNA GTTGTCATGAAAGTAGATTGTCTGACTCT)
- inhibition of noxin (FLAG-noxin) expression (noxin): strongest inhibition
- fraction of cells in G2/M phase (NIH3T3 cells [4]; nocodazole-treated NIH3T3 cells): decreased
- fraction of cells in the sub-G1 population (NIH3T3 cells [4]; transfected with 1 μg construct): 7.8±1.3%
- fraction of cells in the sub-G1 population (NIH3T3 cells [4]; transfected with 2 μg construct): 8.0±1.7%
- nuclear / chromatin morphology of transfected cells (NIH3T3 cells [5]): condensed chromatin structures

Compound: HPF: noxin shRNA construct, nt 509-537 (SEQ ID NO: 19) (DNA AAACCCTGGACAGTGGTAGAACTCAGAGC)
- inhibition of noxin (FLAG-noxin) expression (noxin): no effect
- nuclear / chromatin morphology of transfected cells (NIH3T3 cells [5]): normal shape

Compound: p21/WAF: cdk inhibitor p21/WAF expressed from transfected plasmid
- fraction of BrdU-positive cells in transfected cells, % of the value for the untransfected cells (NIH3T3 cells [6]): 39%
